Inhibition and IC50 data for 17 compounds are collected here from US20210214375A1 (LUNDBECK LA JOLLA RESEARCH CENTER, INC., priority 2017, published 2021).

Assay [1] concerns the target T1, MAGL (Mus musculus, UniProt O35678).
T1 construct: from tissue; host or cells: brain of wild-type C57Bl/6J mice
T1 sequence (O35678 1-303): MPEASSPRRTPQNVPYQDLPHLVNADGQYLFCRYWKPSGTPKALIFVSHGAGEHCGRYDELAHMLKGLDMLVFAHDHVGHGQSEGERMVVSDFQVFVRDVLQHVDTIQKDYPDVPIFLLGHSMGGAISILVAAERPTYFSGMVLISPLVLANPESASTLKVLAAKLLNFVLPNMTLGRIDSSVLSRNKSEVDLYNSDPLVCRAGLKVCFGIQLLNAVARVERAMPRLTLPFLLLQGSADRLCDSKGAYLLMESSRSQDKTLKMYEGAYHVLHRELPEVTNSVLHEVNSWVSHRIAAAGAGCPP
Briefly: Mouse brain proteomes from inhibitor treated mice (oral gavage, brain proteomes analyzed 4 h after administration). Type of assay: in vivo, mouse (C57Bl/6J). Conditions: brain proteome 4 h after administration, read-out: % Inh 5 mg/kg MGLL (Mouse). As for the experimental part:
Compounds are tested to assess their MAGL and serine hydrolase activity using the following in vitro and in vivo assays.
Preparation of Mouse Brain Proteomes from Inhibitor Treated Mice.
Inhibitors were administered to wild-type C57Bl/6J by oral gavage in a vehicle of polyethylene glycol. Each animal was sacrificed 4 h following administration and brain proteomes were prepared and analyzed according to previously established methods (See Niphakis, M. J., et al. (2011) ACS Chem. Neurosci. and Long, J. Z., et al. Nat. Chem. Biol. 5:37-44).

Another assay addresses T2, MGLL (Mus musculus, UniProt O35678).
T2 construct: Brain; from tissue; host or cells: mouse brain proteome
T2 sequence (O35678 1-303): T1 sequence (O35678 1-303)
Briefly: In vitro competitive activity-based protein profiling, mouse brain proteome. The format is biochemical. As for the experimental part: [Worded in the source for another species; this species is reported under the same test.] (§1) Proteomes (human prefrontal cortex or cell membrane fractions) (50 μL, 1.0 mg/mL total protein concentration) were preincubated with varying concentrations of inhibitors at 37° C. After 30 min, FP—Rh or HT-01 (1.0 μL, 50 μM in DMSO) was added and the mixture was incubated for another 30 min at room temperature. Reactions were quenched with SDS loading buffer (15 μL-4×) and run on SDS-PAGE.

The target of another assay is T3, ABHD6 (Mus musculus, UniProt Q8R2Y0).
T3 construct: Brain; from tissue; host or cells: mouse brain proteome
T3 sequence (Q8R2Y0 1-336): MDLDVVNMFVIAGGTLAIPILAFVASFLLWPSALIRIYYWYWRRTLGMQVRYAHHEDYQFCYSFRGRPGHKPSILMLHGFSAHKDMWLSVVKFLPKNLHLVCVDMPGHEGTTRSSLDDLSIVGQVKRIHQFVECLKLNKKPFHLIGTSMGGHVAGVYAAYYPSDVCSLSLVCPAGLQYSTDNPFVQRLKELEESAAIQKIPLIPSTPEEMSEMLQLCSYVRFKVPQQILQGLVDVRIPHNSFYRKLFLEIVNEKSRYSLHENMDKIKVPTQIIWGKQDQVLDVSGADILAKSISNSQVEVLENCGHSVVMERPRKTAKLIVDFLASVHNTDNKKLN
Briefly: In vitro competitive activity-based protein profiling, mouse brain proteome, ABHD6. The format is biochemical. Conditions: mouse. The method, then:
[Worded in the source for another target; this target is reported under the same test.] as §1

Assay [2] addresses T4, MAGL (Homo sapiens, UniProt Q99685).
T4 construct: Proteomes (human prefrontal cortex or cell membrane fractions); from tissue
T4 sequence (Q99685 1-303): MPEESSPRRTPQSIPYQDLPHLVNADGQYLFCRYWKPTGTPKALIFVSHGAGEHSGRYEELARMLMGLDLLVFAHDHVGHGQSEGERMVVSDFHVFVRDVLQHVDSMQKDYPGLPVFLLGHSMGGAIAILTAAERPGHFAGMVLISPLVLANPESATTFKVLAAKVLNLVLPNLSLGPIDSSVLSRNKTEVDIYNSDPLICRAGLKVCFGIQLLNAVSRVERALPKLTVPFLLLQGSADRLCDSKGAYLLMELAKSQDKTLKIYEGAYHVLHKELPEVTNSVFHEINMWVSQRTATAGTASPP
The experiment in a line: In vitro competitive activity-based protein profiling (gel-based, FP-Rh or HT-01 probe). Type of assay: biochemical. Conditions: PC3 proteome, read-out: IC50 MGLL PC3 (Human). In outline:
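Readout is SDS-PAGE of probe-labelled proteome after FP-Rh or HT-01 (1.0 μL, 50 μM stock) labelling for 30 min at room temperature. Beforehand, inhibitors at varying concentrations were preincubated 30 min at 37° C with human prefrontal cortex or cell membrane fractions at 1.0 mg/mL total protein.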

As a reminder, the IC50 is the midpoint of a concentration-inhibition curve. For `O=C(OC(C(F)(F)F)C(F)(F)F)N1CCC2(CCN(Cc3ccc(Cl)cc3N3CCC(F)CC3)CC2)C1` [Example 28, 1,1,1,3,3,3-Hexafluoropropan-2-yl 8-(4-chloro-2-(4-fluoropiperidin-1-yl)benzyl)-2,8-diazaspiro[4.5]decane-2-carboxylate], the inhibition at 5 mg/kg on MAGL [1] is not below 75%. Also, the IC50 at MGLL was less than 100 nM; at ABHD6 it was more than 1000 nM.
For `CC(=O)N1CCC2(CC1)CCN(c1cc(Cl)ccc1CN1CCN(C(=O)OC(C(F)(F)F)C(F)(F)F)CC1)C2` [Example 29, 1,1,1,3,3,3-Hexafluoropropan-2-yl 4-(2-(8-acetyl-2,8-diazaspiro[4.5]decan-2-yl)-4-chlorobenzyl)piperazine-1-carboxylate], the inhibition at 5 mg/kg on MAGL [1] is not below 75%. Further, the IC50 is less than 100 nM at MGLL and more than 1000 nM at ABHD6.
As to `CS(=O)(=O)N1CCC2(CCN(c3cc(Cl)ccc3CN3CCN(C(=O)OC(C(F)(F)F)C(F)(F)F)CC3)C2)CC1` [Example 30, 1,1,1,3,3,3-Hexafluoropropan-2-yl 4-(4-chloro-2-(8-(methylsulfonyl)-2,8-diazaspiro[4.5]decan-2-yl)benzyl)piperazine-1-carboxylate], the inhibition at 5 mg/kg at MAGL [1] was not above 25%. Also, the half-maximal inhibitory concentration (IC50) on MGLL is less than 100 nM; on ABHD6, more than 1000 nM.
Regarding `O=C(OC(C(F)(F)F)C(F)(F)F)N1CCC2(CC1)CN(Cc1c(N3CC4COCC4C3)cccc1C(F)(F)F)C2` (centres unmarked) [Example 32, 1,1,1,3,3,3-Hexafluoropropan-2-yl 2-(2-(tetrahydro-1H-furo[3,4-c]pyrrol-5(3H)-yl)-6-(trifluoromethyl)benzyl)-2,7-diazaspiro[3.5]nonane-7-carboxylate], the inhibition at 5 mg/kg on MAGL [1] was not below 75%. Moreover, the 50% inhibitory concentration (IC50) is less than 100 nM on MGLL and more than 1000 nM on ABHD6.
For the compound `O=C(OC(C(F)(F)F)C(F)(F)F)N1CCC2(CC1)CN(Cc1ccc(Cl)cc1N1CCOCC1)C2` [Example 39, 1,1,1,3,3,3-Hexafluoropropan-2-yl 2-(4-chloro-2-morpholinobenzyl)-2,7-diazaspiro[3.5]nonane-7-carboxylate], on MAGL [1], the inhibition at 5 mg/kg is not below 75%. For the same compound, the values for the IC50 on MGLL and at ABHD6 were less than 100 nM and 100 to 1000 nM, respectively.
Take `O=C(OC(C(F)(F)F)C(F)(F)F)N1CCC2(CC1)CN(Cc1c(N3CCCCC3)cccc1C(F)(F)F)C2` [Example 41, 1,1,1,3,3,3-Hexafluoropropan-2-yl 2-(2-(piperidin-1-yl)-6-(trifluoromethyl)benzyl)-2,7-diazaspiro[3.5]nonane-7-carboxylate]: the inhibition at 5 mg/kg on MAGL [1] is not below 75%. Moreover, the 50% inhibitory concentration (IC50) is less than 100 nM at MGLL and more than 1000 nM on ABHD6.
On the same counts, the results for `CS(=O)(=O)N1CCN(c2cccc(Cl)c2CN2CC3(CCN(C(=O)OC(C(F)(F)F)C(F)(F)F)CC3)C2)CC1` [Example 44, 1,1,1,3,3,3-Hexafluoropropan-2-yl 2-(2-chloro-6-(4-(methylsulfonyl)piperazin-1-yl)benzyl)-2,7-diazaspiro[3.5]nonane-7-carboxylate] are not below 75%, less than 100 nM and less than 100 nM.
The matching figures for `O=C(OC(C(F)(F)F)C(F)(F)F)N1CCC2(CC1)CN(Cc1c(Cl)cccc1N1CCCCC1)C2` [Example 45, 1,1,1,3,3,3-Hexafluoropropan-2-yl 2-(2-chloro-6-(piperidin-1-yl)benzyl)-2,7-diazaspiro[3.5]nonane-7-carboxylate]: not below 75%, less than 100 nM and less than 100 nM.
`O=C(OC(C(F)(F)F)C(F)(F)F)N1CCC2(CC1)CN(Cc1c(Cl)cccc1N1CCOCC1)C2` [Example 46, 1,1,1,3,3,3-Hexafluoropropan-2-yl 2-(2-chloro-6-morpholinobenzyl)-2,7-diazaspiro[3.5]nonane-7-carboxylate]: the inhibition at 5 mg/kg at MAGL [1] is not below 75%. Further, the IC50 at MGLL and on ABHD6 was less than 100 nM in each case.
Take `CC(=O)N1CCN(c2cccc(Cl)c2CN2CC3(CCN(C(=O)OC(C(F)(F)F)C(F)(F)F)CC3)C2)CC1` [Example 49, 1,1,1,3,3,3-Hexafluoropropan-2-yl 2-(2-(4-acetylpiperazin-1-yl)-6-chlorobenzyl)-2,7-diazaspiro[3.5]nonane-7-carboxylate]: on MAGL [1], the inhibition at 5 mg/kg was not below 75%. Also, the IC50 on MGLL and at ABHD6 was less than 100 nM throughout.
Regarding `CCN1CCN(c2cccc(Cl)c2CN2CC3(CCN(C(=O)OC(C(F)(F)F)C(F)(F)F)CC3)C2)CC1` [Example 50, 1,1,1,3,3,3-Hexafluoropropan-2-yl 2-(2-chloro-6-(4-ethylpiperazin-1-yl)benzyl)-2,7-diazaspiro[3.5]nonane-7-carboxylate], on MAGL [1], the inhibition at 5 mg/kg is not above 25%. In addition, the concentration for half-maximal inhibition (IC50) on MGLL was less than 100 nM; at ABHD6, 100 to 1000 nM.
On to `O=C(OC(C(F)(F)F)C(F)(F)F)N1CCC2(CC1)CN(Cc1c(N3CCC(F)CC3)cccc1C(F)(F)F)C2` [Example 51, 1,1,1,3,3,3-Hexafluoropropan-2-yl 2-(2-(4-fluoropiperidin-1-yl)-6-(trifluoromethyl)benzyl)-2,7-diazaspiro[3.5]nonane-7-carboxylate], for which the inhibition at 5 mg/kg at MAGL [1] was not below 75%. The IC50 was less than 100 nM at MGLL and more than 1000 nM on ABHD6.
Regarding `O=C(OC(C(F)(F)F)C(F)(F)F)N1CCC2(CC1)CN(Cc1c(N3CCC4(CCOCC4)C3)cccc1C(F)(F)F)C2` [Example 52, 1,1,1,3,3,3-Hexafluoropropan-2-yl 2-(2-(8-oxa-2-azaspiro[4.5]decan-2-yl)-6-(trifluoromethyl)benzyl)-2,7-diazaspiro[3.5]nonane-7-carboxylate], the inhibition at 5 mg/kg on MAGL [1] was not below 75%. The 50% inhibitory concentration (IC50) at MGLL is less than 100 nM; at ABHD6, 100 to 1000 nM.
In the case of `O=C(O)CN1CCC2(CC1)CN(c1cc(C(F)(F)F)ccc1CN1CCCC13CCN(C(=O)OC(C(F)(F)F)C(F)(F)F)CC3)C2` [Example 156, 2-(2-(2-((8-(((1,1,1,3,3,3-Hexafluoropropan-2-yl)oxy)carbonyl)-1,8-diazaspiro[4.5]decan-1-yl)methyl)-5-(trifluoromethyl)phenyl)-2,7-diazaspiro[3.5]nonan-7-yl)acetic acid], at MAGL [1], the inhibition at 5 mg/kg is not above 25%. Also, on MAGL [2], the 50% inhibitory concentration (IC50) was less than 100 nM.
Consider `O=C(O)CN1CC2(CCN(c3cc(C(F)(F)F)ccc3CN3CCCC34CCN(C(=O)OC(C(F)(F)F)C(F)(F)F)CC4)CC2)C1` [Example 157, 2-(7-(2-((8-(((1,1,1,3,3,3-Hexafluoropropan-2-yl)oxy)carbonyl)-1,8-diazaspiro[4.5]decan-1-yl)methyl)-5-(trifluoromethyl)phenyl)-2,7-diazaspiro[3.5]nonan-2-yl)acetic acid], for which the inhibition at 5 mg/kg at MAGL [1] is not above 25%. In addition, the IC50 at MAGL [2] is less than 100 nM.
For the compound `O=C(O)CN1CC2(CCN(c3cc(CN4CCCC45CCN(C(=O)OC(C(F)(F)F)C(F)(F)F)CC5)cc(C(F)(F)F)c3)CC2)C1` [Example 158, 2-(7-(3-((8-(((1,1,1,3,3,3-Hexafluoropropan-2-yl)oxy)carbonyl)-1,8-diazaspiro[4.5]decan-1-yl)methyl)-5-(trifluoromethyl)phenyl)-2,7-diazaspiro[3.5]nonan-2-yl)acetic acid], at MAGL [1], the inhibition at 5 mg/kg was not above 25%. Besides, at MAGL [2], the IC50 was less than 100 nM.
`O=C(O)C1CCN(c2c(Cl)cccc2CN2CCC3(CC2)CCN(C(=O)OC(C(F)(F)F)C(F)(F)F)C3)CC1` [Example 218, 1-(2-Chloro-6-((2-(((1,1,1,3,3,3-hexafluoropropan-2-yl)oxy)carbonyl)-2,8-diazaspiro[4.5]decan-8-yl)methyl)phenyl) piperidine-4-carboxylic acid]: the inhibition at 5 mg/kg at MAGL [1] is not below 75%. At MAGL [2], the IC50 was less than 100 nM.
